{
  "source": "patent US20130072519A1",
  "about": "“2-PHENYL BENZOYLAMIDES” (priority 2010, published 2013)",
  "key": {"[1]": {"assay": "Human liver microsomal stability", "assay_type": "in vitro ADME", "details": "Human Liver Microsomes 0.76 mg/mL, 1 μM compound, 37° C.", "method": "(§1) Pooled human liver or intestinal microsomes (final concentration 0.76 mg/mL) were diluted in 100 mM potassium phosphate buffer (pH 7.4) and preincubated at 37° C. The compounds of interest were dissolved in DMSO (30 mM), diluted to 100 μM in acetonitrile or methanol, and added to the microsomal incubations to achieve a final concentration of 1 μM with 1% or less final organic solvent. The mixtures were incubated for 30 min at 37° C. Aliquots were removed at predetermined times and quenched with an excess acetonitrile, containing an internal standard, on ice. Following centrifugation, the analytes were quantified by liquid chromatography-tandem mass spectrometry (LC-MS/MS). The compound remaining (%) was calculated from the analyte area ratio at the predetermined time/initial analyte area ratio at time 0×100."}, "[2]": {"assay": "Human intestinal microsomal stability", "assay_type": "in vitro ADME", "details": "Human Intestinal Microsomes 0.76 mg/mL, 1 μM compound, 37° C.", "method": "as §1"}, "[3]": {"system": "Apolipoprotein B Secretion from HepG2 Cells", "assay": "Inhibition of Apolipoprotein B secretion from HepG2 cells (ELISA)", "assay_type": "cell-based, human", "details": "Homo sapiens, HepG2, HepG2 cells, 22-24 hours incubation, ApoB ELISA; Low/High IC50 columns give the 95% confidence interval"}},
  "data": [
    {"smiles": "CCOC(=O)[C@]1(COC(=O)Cc2ccc(NC(=O)c3ccc(C)cc3-c3ccc(OC(C)C)cc3)c(C(=O)N(C)C)c2)c2ccccc2C(=O)N1C", "note": "[Example 72, ethyl (1R)-1-({2-[3-(dimethylcarbamoyl)-4-{[(4′-isopropoxy-5-methylbiphenyl-2-yl)carbonyl]amino}phenyl]acetoxy}methyl)-2-methyl-3-oxoisoindoline-1-carboxylate]", "values": [
      {"measurement": "Compound remaining (%) at 4 min", "setting": "[1]; pH 7.4, 4 min", "value": 71, "unit": "%"},
      {"measurement": "Compound remaining (%) at 30 min", "setting": "[1]; pH 7.4, 30 min", "value": 9.2, "unit": "%"},
      {"measurement": "Compound remaining (%) at 4 min", "setting": "[2]; pH 7.4, 4 min", "value": 125, "unit": "%"},
      {"measurement": "Compound remaining (%) at 30 min", "setting": "[2]; pH 7.4, 30 min", "value": 100, "unit": "%"},
      {"measurement": "IC50", "setting": "[3]", "value": 119, "unit": "pM"}
    ]}
  ]
}
